Laboratory results taken from publication PMC9854187, “A novel Mcl-1 inhibitor synergizes with venetoclax to induce apoptosis in cancer cells” (Molecular Medicine, 2023).

Target: T1, Mcl-1 (Homo sapiens, UniProt Q07820)
T1 construct: gene MCL1; recombinant GST-Mcl-1
Experiment: fluorescence polarization with recombinant GST-Mcl-1; supported by GST pull-down showing disruption of Mcl-1/Bak
Assay type: binding

T1 sequence (Q07820 whole entry): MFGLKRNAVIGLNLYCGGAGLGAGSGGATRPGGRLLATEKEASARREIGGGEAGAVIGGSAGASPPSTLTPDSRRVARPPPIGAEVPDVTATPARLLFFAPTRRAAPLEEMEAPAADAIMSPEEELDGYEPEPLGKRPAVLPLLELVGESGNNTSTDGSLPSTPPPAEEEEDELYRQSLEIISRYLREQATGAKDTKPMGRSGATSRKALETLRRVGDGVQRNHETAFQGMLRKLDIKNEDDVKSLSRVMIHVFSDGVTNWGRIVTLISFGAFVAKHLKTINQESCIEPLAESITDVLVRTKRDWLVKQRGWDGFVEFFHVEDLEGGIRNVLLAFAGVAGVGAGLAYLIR

Ki: 450 ± 50 nM
Structure (SMILES): Cc1cc(Cl)ccc1NC(=O)C(=O)C(C(=O)c1ccc2ccccc2c1)C1OC(=O)c2ccccc21 (stereo not shown) [MI-238]
